This is an account of results in patent US10344026B2, “Compositions and methods of targeting mutant K-ras” (NANTBIO, INC., priority 2017, dated 2019).

Type in all cases: cell-based
Experiment [1] deals with Ishikawa (K-Ras wild type cell line). The experiment in a line: Viability assay (CellTiterBlue, 72 hr) Ishikawa. The following applies: Homo sapiens, GI50, CellTiterBlue. The procedure: (§1) Viability assays were performed on exemplary compounds and Table 2 below lists exemplary results for selected compounds tested on K-Ras wild type cell lines (Ishikawa, U87-MG, HCC827, and A375) and various K-Ras mutant cell lines (Panc1-G12D; Panc10.05-G12D; HCT116-G31D). Results are expressed in μM and corresponding structures are shown in FIGS. 2A-2G and Examples 1-152, above.
(§2) Cells are counted and seeded at 1000 cells/36 ul medium/well into 384-well microplates. Cells are returned to 37° C. CO2 incubator for 18 hr. Drug is made as 200× in DMSO and diluted into medium to 10×. To each well is added 4 ul 10× drug, and plates are returned to the incubator. Final assay DMSO concentration is 0.5%. After 72 hr, 8 ul CellTiterBlue (Promega) is added to each well. After 3 hr, fluorescence (Ex550/Em590) is determined on the Victor Plate Reader (Perkin Elmer). Assay range is determined by DMSO control (100% viability) and 100 uM tamoxifen (0% viability). GI50 values are calculated using Graphpad Prism.
In general terms: The colour change of resazurin is a common sign of viable cells or microbes.

Experiment [2] deals with phospho-ERK in Panc1 (G12D). Put plainly: In-Cell Western phospho-ERK, Panc1. The note with it: Homo sapiens, PANC-1, 1 h; Panc1, one hour treatment; read-out: In-Cell Western Panc1 (G12D) Erk (P). How it is done: (§3) In-cell phosphorylation assays for Erk and Akt were performed on several of the compounds and exemplary results are shown in Table 3 below using HCC827 and A375 cell lines for wild type K-Ras and Panc1 and Panc10.05 cell lines for G12D K-Ras mutants. Results are expressed in μM and corresponding structures are shown in FIGS. 2A-2G and Examples 1-152, above.
(§4) Cells are seeded in complete medium into black sided, clear-bottom 384-well microplates at 3000 cells/[…]/well. Plates are returned to 37° C. CO2 incubator for 18 hr. Drug is made as 200× in DMSO and diluted into medium to 10×. To each well is added 4 ul 10× test article or controls, and plates are returned to the incubator. Final assay DMSO concentration is 0.5%. After one hour, cells are fixed in formaldehyde, rinsed & permeabilized with triton X-100, and blocked with BSA/Goat serum blocking solution. Primary phospho-Akt and phospho-ERK antibodies are added and plates are incubated overnight at 4° C. Plates are rinsed with Tween-20 wash buffer and secondary antibody (Goat anti-rabbit, Thermofisher) is added. After 2 hours, plates are rinsed in Tween-20 wash buffer, and then PBS. Plates are imaged on the Celigo (Nexcelom) and cellular fluorescence is quantitated. Full inhibition of phospho-Akt is achieved with 1 uM BEZ235 (Sellekchem), while full inhibition of phospho-ERK is achieved with 1 uM MEK Inhibitor II Calbiochem). EC50 values are calculated using Graphpad Prism.

The next experiment concerns HCT116-G31D. The experiment in a line: Viability assay (CellTiterBlue, 72 hr) HCT116. The following applies: Homo sapiens, HCT-116, GI50, CellTiterBlue, read-out: 72 hr Cell Viability HCT116 (G13D). How it is done:
as §1, §2

Another experiment deals with Panc10.05-G12D. Put plainly: Viability assay (CellTiterBlue, 72 hr) Panc10.05. The following applies: Homo sapiens, Panc1005, GI50, CellTiterBlue, read-out: 72 hr Cell Viability Panc10.05 (G12D). The procedure: as §1, §2
Experiment [3] has as its system phospho-Akt in Panc10.05 (G12D). Put plainly: In-Cell Western phospho-Akt, Panc10.05. The note with it: Homo sapiens, Panc1005, 1 h; Panc10.05, one hour treatment; read-out: In-Cell Western Panc10.05 (G12D) Akt (P). The procedure:
as §3, §4

Experiment [4] has as its system phospho-Akt in Panc1 (G12D). Put plainly: In-Cell Western phospho-Akt, Panc1. The note with it: Homo sapiens, PANC-1, 1 h; Panc1, one hour treatment; read-out: In-Cell Western Panc1 (G12D) Akt (P). The procedure: as §3, §4
Experiment [5] relates to phospho-ERK in Panc10.05 (G12D). Put plainly: In-Cell Western phospho-ERK, Panc10.05. The note with it: Homo sapiens, Panc1005, 1 h; Panc10.05, one hour treatment; read-out: In-Cell Western Panc10.05 (G12D) Erk (P). How it is done:
as §3, §4

Experiment [6] deals with HCC827 (K-Ras wild type cell line). Put plainly: Viability assay (CellTiterBlue, 72 hr) HCC827. The note with it: Homo sapiens, GI50, CellTiterBlue. How it is done: as §1, §2
Another experiment relates to Panc1-G12D. The experiment in a line: Viability assay (CellTiterBlue, 72 hr) Panc1. The following applies: Homo sapiens, PANC-1, GI50, CellTiterBlue, read-out: 72 hr Cell Viability Panc1 (G12D). How it is done:
as §1, §2

Experiment [7] concerns U87-MG (K-Ras wild type cell line). The experiment in a line: Viability assay (CellTiterBlue, 72 hr) U87-MG. The note with it: Homo sapiens, U-87 MG, GI50, CellTiterBlue, U87-MG K-Ras wild-type. How it is done:
as §1, §2

Read-outs that look alike come from different tables or passages of the source.

On to `Cc1ncc(C(=O)Nc2nc(-c3ccc4c(c3)CCC(=O)N4)cs2)c(C)n1` [Compound 148, 2,4-dimethyl-N-(4-(2-oxo-1,2,3,4-tetrahydroquinolin-6-yl)thiazol-2-yl)pyrimidine-5-carboxamide], for which the IC50 in experiment [1] (Ishikawa cells (K-Ras wild-type)) was 18 µM; with HCT116-G31D (HCT116 cells (K-Ras G13D)), over 25 µM; in the experiment on Panc10.05-G12D (Panc10.05 cells (K-Ras G12D)), 2 µM; in experiment [6] (HCC827 cells (K-Ras wild-type)) it was 11 µM; in the experiment with Panc1-G12D (Panc1 cells (K-Ras G12D)), 4 µM. Besides, the EC50 in [2], in [3], in [4] and in [5] was over 25 µM throughout.
With `CC(=O)Nc1nc(C)c(C(=O)Nc2nc(-c3ccc4c(c3)CCC(=O)N4)cs2)s1` [Compound 14, 2-acetamido-4-methyl-N-(4-(2-oxo-1,2,3,4-tetrahydroquinolin-6-yl)thiazol-2-yl)thiazole-5-carboxamide], the IC50 was over 25 µM in experiment [1] (Ishikawa K-Ras wild-type); over 25 µM with HCT116-G31D (HCT116 K-Ras G13D); 6 µM in the experiment on Panc10.05-G12D (Panc10.05 K-Ras G12D); over 25 µM in experiment [7]; over 25 µM in the experiment with Panc1-G12D (Panc1 K-Ras G12D). Besides, the EC50 in experiment [2] is over 25 µM; in experiment [4] it was over 25 µM; in [5] it was 26 µM.
On to `Cc1nc(C2CCCCC2)sc1C(=O)Nc1nc(-c2ccc3c(c2)CCC(=O)N3)cs1` [Compound 146, 2-cyclohexyl-4-methyl-N-(4-(2-oxo-1,2,3,4-tetrahydroquinolin-6-yl)thiazol-2-yl)thiazole-5-carboxamide], for which the IC50 in experiment [1] (Ishikawa K-Ras wild-type) was over 25 µM; with HCT116-G31D (HCT116 K-Ras G13D), over 25 µM; with Panc10.05-G12D (Panc10.05 K-Ras G12D), 8 µM; in the experiment with Panc1-G12D (Panc1 K-Ras G12D) it was 13 µM. In addition, the EC50 is 5 µM in experiment [2], over 25 µM in [3], over 25 µM in experiment [4] and 9 µM in [5].
For `CCc1nc(C)c(C(=O)Nc2nc(-c3ccc4c(c3)CCC(=O)N4Cc3ccncc3)cs2)o1` [Compound 65, 2-ethyl-4-methyl-N-(4-(2-oxo-1-(pyridin-4-ylmethyl)-1,2,3,4-tetrahydroquinolin-6-yl)thiazol-2-yl)oxazole-5-carboxamide], the IC50 in experiment [1] (Ishikawa K-Ras wild-type) was over 25 µM; in the experiment with HCT116-G31D (HCT116 K-Ras G13D), over 25 µM; in the experiment on Panc10.05-G12D (Panc10.05 K-Ras G12D), 15 µM; in experiment [7], over 25 µM; in the experiment on Panc1-G12D (Panc1 K-Ras G12D), over 25 µM. Besides, the EC50 in experiment [2], in experiment [4] and in experiment [5] was over 25 µM throughout.
`Cc1nc(NS(C)(=O)=O)sc1C(=O)Nc1nc(-c2ccc3c(c2)CCC(=O)N3)cs1` [Compound 13, 4-methyl-2-(methylsulfonamido)-N-(4-(2-oxo-1,2,3,4-tetrahydroquinolin-6-yl)thiazol-2-yl)thiazole-5-carboxamide]: the IC50 is over 25 µM in [1] (Ishikawa K-Ras wild-type); 21 µM with HCT116-G31D (HCT116 K-Ras G13D); over 25 µM in the experiment with Panc10.05-G12D (Panc10.05 K-Ras G12D); over 25 µM in experiment [7]; over 25 µM in the experiment with Panc1-G12D (Panc1 K-Ras G12D). In addition, the EC50 in [3] and in experiment [4] was over 25 µM each time.
Turning to `Cc1nc(C)c(C(=O)Nc2nc(-c3ccc4c(c3)CCC(=O)N4)c(Cl)s2)s1` [Compound 144, N-(5-chloro-4-(2-oxo-1,2,3,4-tetrahydroquinolin-6-yl)thiazol-2-yl)-2,4-dimethylthiazole-5-carboxamide], the IC50 is over 25 µM in experiment [1] (Ishikawa K-Ras wild-type); over 25 µM in the experiment with HCT116-G31D (HCT116 K-Ras G13D); 10 µM with Panc10.05-G12D (Panc10.05 K-Ras G12D); 11 µM in experiment [7]; 8 µM in the experiment with Panc1-G12D (Panc1 K-Ras G12D). The EC50 in [2] was 6 µM; in experiment [3], over 25 µM; in experiment [4] it was 16 µM; in [5], 10 µM.
Take `Cc1cn(C)nc1C(=O)Nc1nc(-c2ccc3c(c2)CCC(=O)N3)cs1` [Compound 23, 1,4-dimethyl-N-(4-(2-oxo-1,2,3,4-tetrahydroquinolin-6-yl)thiazol-2-yl)-1H-pyrazole-3-carboxamide]: the IC50 in experiment [1] (Ishikawa K-Ras wild-type) is over 25 µM; in the experiment with HCT116-G31D (HCT116 K-Ras G13D) it was over 25 µM; with Panc10.05-G12D (Panc10.05 K-Ras G12D) it was 2 µM; in experiment [6] (HCC827 K-Ras wild-type) it was over 25 µM; in the experiment on Panc1-G12D (Panc1 K-Ras G12D), over 25 µM. For the same molecule, the EC50 in experiment [2], in experiment [3], in [4] and in experiment [5] was over 25 µM in each case.
On to `Cc1ncccc1C(=O)Nc1nc(-c2ccc3c(c2)CCC(=O)N3)cs1` [Compound 17, 2-methyl-N-(4-(2-oxo-1,2,3,4-tetrahydroquinolin-6-yl)thiazol-2-yl)nicotinamide], for which the IC50 in [1] (Ishikawa K-Ras wild-type) was over 25 µM; in the experiment on HCT116-G31D (HCT116 K-Ras G13D), over 25 µM; in the experiment on Panc10.05-G12D (Panc10.05 K-Ras G12D), 4 µM; in [6] (HCC827 K-Ras wild-type), over 25 µM; in the experiment on Panc1-G12D (Panc1 K-Ras G12D), 7 µM. For the same molecule, the EC50 in experiment [2] is over 25 µM; in [3], 23 µM; in experiment [4] it was over 25 µM; in experiment [5], over 25 µM.
Take `Cc1nc(NC(=O)Nc2ccccc2)sc1C(=O)Nc1nc(-c2ccc3c(c2)CCC(=O)N3)cs1` [Compound 15]: the IC50 in experiment [1] (Ishikawa K-Ras wild-type) was 15 µM; with HCT116-G31D (HCT116 K-Ras G13D), over 25 µM; in the experiment on Panc10.05-G12D (Panc10.05 K-Ras G12D), 1.3 µM; in [7], 15 µM; with Panc1-G12D (Panc1 K-Ras G12D), over 25 µM. Also, the results for the EC50 in experiment [2], in experiment [3] and in experiment [5] were 2 µM, over 25 µM and over 25 µM, respectively.
As for `Cc1nc(C(=O)Nc2nc(-c3ccc4c(c3)CCC(=O)N4)cs2)c(C)o1` [Compound 9, 2,5-dimethyl-N-(4-(2-oxo-1,2,3,4-tetrahydroquinolin-6-yl)thiazol-2-yl)oxazole-4-carboxamide], the IC50 (in experiment [1] (Ishikawa K-Ras wild-type); in the experiment with HCT116-G31D (HCT116 K-Ras G13D); with Panc10.05-G12D (Panc10.05 K-Ras G12D); in [6] (HCC827 K-Ras wild-type); in the experiment with Panc1-G12D (Panc1 K-Ras G12D)) was over 25 µM throughout. The EC50 in experiment [2], in [3], in experiment [4] and in [5] was over 25 µM in each case.
Take `Cc1nc(C2CCN(C)CC2)sc1C(=O)Nc1nc(-c2ccc3c(c2)CCC(=O)N3)cs1` [Compound 16, 4-methyl-2-(1-methylpiperidin-4-yl)-N-(4-(2-oxo-1,2,3,4-tetrahydroquinolin-6-yl)thiazol-2-yl)thiazole-5-carboxamide]: the IC50 in [1] (Ishikawa K-Ras wild-type) was over 25 µM; with HCT116-G31D (HCT116 K-Ras G13D), 9 µM; in the experiment on Panc10.05-G12D (Panc10.05 K-Ras G12D), 11 µM; in [7], over 25 µM; with Panc1-G12D (Panc1 K-Ras G12D) it was 3 µM. In addition, the EC50 in experiment [3] and in [4] was over 25 µM throughout.
